{"source": "patent US20170298056A1", "about": "“SMALL MOLECULE INHIBITORS OF HIV-1 ENTRY AND METHODS OF USE THEREOF” (Dana-Farber Cancer Institute, Inc., priority 2014, published 2017)", "key": {"HIV-1JR-FL gp120": {"test_system": "HIV-1JR-FL gp120", "assay": "ELISA, binding of monoclonal antibodies to gp120 in presence of compound", "settings": "preincubation of gp120 with 18A", "procedure": "Enzyme-linked immunosorbent assay (ELISA). […] Wells were blocked with blocking buffer (5% nonfat dry milk (Bio-Rad) in PBS) for 2 hours and then washed twice with PBS. Between 0.25 and 0.5 μg of purified HIV-1JR-FL gp120 in blocking buffer was added to each well; the plate was incubated for 60 minutes and washed thrice with PBS. […] The plate was incubated for a further 30 minutes and washed thrice with 0.05% Tween in PBS and thrice with PBS. […] The plate was incubated for 30 minutes, washed three times with 0.05% Tween in PBS and three times with PBS, as before, and 80 μl of SuperSignal chemiluminescent substrate (Pierce) was added to each well. The relative light units in each well were measured for 2 sec with a Centro LB 960 luminometer (Berthold Technologies). All procedures were performed at room temperature. Cellbased ELISA was performed."}, "[1]": {"test_system": "cell-cell fusion mediated by HIV-1JR-FL and HIV-1ADS Envs", "assay": "Cell-cell fusion assay", "assay_type": "cell-based", "procedure": "H-JRFL#1336 (effector) and H-Fluc4 (control) cells were grown in DMEM containing 10% FBS, 100 μg/ml streptomycin, 100 units/ml penicillin, 200 μg/ml G418, 1 μg/ml puromycin and 2 μg/ml doxycycline. H-JRFL#13 cells carry an HIV-1JR-FL env gene that is induced by growing the cells in the absence of doxycycline (Tet-Off expression system). H-Fluc4 cells, which carry a firefly luciferase gene that is induced in the absence of doxycycline, were used as specificity controls. Both cell lines were derived from HeLa cells and constitutively express the tetracycline-regulated transactivator (Tet-Off expression system). […]\nH-JRFL#13 or H-FLuc4 cells were washed thrice, detached with StemPro Accutase, centrifuged at 200×g for 6 minutes at 10° C. and seeded in DMEM containing 10% tetracycline-approved FBS, 100 μg/ml streptomycin, 100 units/ml penicillin, 100 μg/ml G418, 1 μg/ml puromycin and without Phenol Red. […] Firefly luciferase activity was measured using an EnVision Multilabel Plate Reader (PerkinElmer, Boston, Mass.). […]\nTo identify new molecules that potentially affect HIV-1 entry, a cell-cell fusion assay that mimics the entry of HIV-1 into cells was established (FIG. 1a). The assay uses a firefly luciferase (F-luc) readout to measure the fusion of HeLa effector cells that express the Envs from a primary HIV-1 strain and target cells coexpressing the CD4 and CCR5 receptors. […]"}, "[2]": {"test_system": "HIV-1JR-FLΔCT Env trimer (gp41 HR1)", "assay": "CD4-induced gp41 HR1 exposure, C34-Ig binding (flow cytometry)", "settings": "100 μM 18A prior to sCD4 addition; approx. 37% with sCD4 alone", "procedure": "Flow cytometry. […] After 48-72 hours, cells were detached with 5 mM EDTA/PBS and between 0.5-1 million cells were briefly incubated with various concentrations of 18A and then with or without the indicated concentrations of sCD4. C34-Ig (at a final concentration of 20 μg/ml) or a specified antibody (at final concentration of 1 μg/ml) was added to the cells. […] Cells were washed twice and analyzed with a BD FACSCanto II flow cytometer (BD Biosciences). For analysis of resistant mutants (FIG. 5e-g), the measurements were normalized for the level of sCD4 binding of each mutant, and the response of each mutant was further normalized to that of the wild-type HIV-1JR-FL E168K+N188AΔCT Env (herein designated WTKA). […] The sCD4 IC50/sCD4 binding ratio (FIGS. 4c and e) was calculated as follows. Binding of sCD4 to different envelope mutants was measured by flow cytometry and normalized first to 2G12 binding to account for potentially different Env expression levels, and then to sCD4 binding to the wild-type HIV-1JR-FL Env. The IC50 of sCD4 for inhibition of virus infection by each mutant Env was divided by the normalized sCD4 binding to Env-expressing cells to calculate the sCD4 IC50/sCD4 binding value."}}}
{"compound": "O=C(N/N=C/c1ccc(O)cc1)Nc1cccc2nsnc12", "note": "[Compound 18A]", "values": [{"measurement": "binding of E51, 17b and 412d (CD4i) antibodies to gp120", "setting": "HIV-1JR-FL gp120", "result": "modest but reproducible decrease"}, {"measurement": "binding of most monoclonal antibodies to gp120", "setting": "HIV-1JR-FL gp120", "result": "not affected"}, {"measurement": "cell-cell fusion", "setting": "[1]", "result": "specifically inhibited cell-cell fusion"}, {"measurement": "cells binding C34-Ig", "setting": "[2]", "result": 4.7, "unit": "%"}]}
